Experimental findings from the kinase profiling compilation of Christmann-Franck et al. (2016) are described below.

Where “and” joins values, the source holds several entries; their conditions need not be identical. Equal entries are not always repeated.

Sequence of PRKG1 (human) (Q13976 whole entry, looked up): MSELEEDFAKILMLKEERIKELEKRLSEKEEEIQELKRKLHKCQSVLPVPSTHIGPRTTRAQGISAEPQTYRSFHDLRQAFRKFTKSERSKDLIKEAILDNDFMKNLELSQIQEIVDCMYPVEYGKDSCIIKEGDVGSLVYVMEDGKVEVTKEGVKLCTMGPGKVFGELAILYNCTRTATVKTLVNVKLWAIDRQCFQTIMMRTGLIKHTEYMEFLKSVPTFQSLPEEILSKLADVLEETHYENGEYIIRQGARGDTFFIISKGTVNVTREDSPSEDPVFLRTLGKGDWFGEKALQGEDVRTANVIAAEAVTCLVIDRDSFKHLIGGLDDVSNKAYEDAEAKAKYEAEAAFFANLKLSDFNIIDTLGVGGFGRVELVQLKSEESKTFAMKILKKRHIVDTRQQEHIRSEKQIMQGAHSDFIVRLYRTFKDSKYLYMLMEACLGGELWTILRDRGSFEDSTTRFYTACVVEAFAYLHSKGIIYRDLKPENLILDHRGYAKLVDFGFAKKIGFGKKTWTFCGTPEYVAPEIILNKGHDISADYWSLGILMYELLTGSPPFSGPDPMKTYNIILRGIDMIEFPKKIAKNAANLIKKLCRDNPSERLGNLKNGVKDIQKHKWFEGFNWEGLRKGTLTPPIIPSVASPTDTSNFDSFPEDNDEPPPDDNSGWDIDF
Sequence of AURKB (human) (Q96GD4 whole entry, looked up): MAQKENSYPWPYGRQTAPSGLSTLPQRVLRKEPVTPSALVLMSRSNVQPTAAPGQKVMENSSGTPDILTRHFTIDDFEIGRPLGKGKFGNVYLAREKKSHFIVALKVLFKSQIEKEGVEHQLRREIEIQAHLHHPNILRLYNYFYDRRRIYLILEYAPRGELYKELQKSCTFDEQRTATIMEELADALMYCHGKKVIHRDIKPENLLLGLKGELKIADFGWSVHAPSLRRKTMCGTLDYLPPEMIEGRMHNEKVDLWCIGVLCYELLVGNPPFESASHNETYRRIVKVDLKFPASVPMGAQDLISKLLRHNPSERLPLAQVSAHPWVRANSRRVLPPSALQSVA
Sequence of DAPK2 (human) (Q9UIK4 whole entry, looked up): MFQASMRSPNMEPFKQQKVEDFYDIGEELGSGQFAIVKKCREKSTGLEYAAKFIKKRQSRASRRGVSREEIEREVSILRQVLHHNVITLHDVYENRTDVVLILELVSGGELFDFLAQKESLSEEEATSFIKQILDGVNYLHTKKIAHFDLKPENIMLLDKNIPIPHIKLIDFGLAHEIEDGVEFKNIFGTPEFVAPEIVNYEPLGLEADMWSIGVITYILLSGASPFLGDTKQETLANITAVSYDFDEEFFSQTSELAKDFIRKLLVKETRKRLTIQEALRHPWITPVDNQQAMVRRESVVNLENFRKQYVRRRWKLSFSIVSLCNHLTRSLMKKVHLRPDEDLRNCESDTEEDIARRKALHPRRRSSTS

One assay concerns the target AURKB (human) (UniProt Q96GD4). Nature of the assay: radiometric filter-binding kinase assay, Kinase HotSpot. The note with it: compound 0.5 µM; ATP 10 µM.
In the case of `O=C1Nc2ccccc2/C1=C1/Nc2ccccc2/C1=N\OCCC(O)CO` (configuration not stated), the residual activity (in general, the signal under treatment as a percentage of the control signal) was 27.4%.
Take `COc1ccc(CNC(=O)Nc2ncc([N+](=O)[O-])s2)cc1`: the residual activity stood at 97.1%.
The same measure, in the same setting: for `Cn1sc(=O)n(Cc2ccccc2)c1=O` the value was 102%.
Same read-out and setting: to `CC(C)c1nn(-c2c(Cl)cccc2Cl)c2nc(Cc3ccc(OCCO)cc3)nc(O)c12` belongs 104%.

The next assay concerns the target BRAF (human) (UniProt P15056). The assay is described as above. The note with it: compound 0.5 µM; ATP 10 µM.
As to `COc1ccc(CNC(=O)Nc2ncc([N+](=O)[O-])s2)cc1`, the residual activity turned out to be 93.4%.
Still for that read-out and setting: for `Cn1sc(=O)n(Cc2ccccc2)c1=O` the value was 98.1%.

Another assay has as its target VRK1 (human) (UniProt Q99986). Described as above. The note with it: compound 0.5 µM; ATP 10 µM.
On to `O=C1Nc2ccccc2/C1=C1/Nc2ccccc2/C1=N\OCCC(O)CO` (configuration not stated), for which the residual activity amounted to 88.3%.
The same measure, in the same setting: to `COc1ccc(CNC(=O)Nc2ncc([N+](=O)[O-])s2)cc1` belongs 95%.
Consider `Cn1sc(=O)n(Cc2ccccc2)c1=O`, for which the residual activity turned out to be 94.2%.
The same measure, in the same setting: to `CC(C)c1nn(-c2c(Cl)cccc2Cl)c2nc(Cc3ccc(OCCO)cc3)nc(O)c12` belongs 103%.

In the next assay the target is JAK3 JH1 JH2 (human) (UniProt P52333). The description is as above. The note with it: compound 0.5 µM; ATP 10 µM.
Sequence of JAK3 JH1 JH2 (human) (P52333 whole entry, looked up): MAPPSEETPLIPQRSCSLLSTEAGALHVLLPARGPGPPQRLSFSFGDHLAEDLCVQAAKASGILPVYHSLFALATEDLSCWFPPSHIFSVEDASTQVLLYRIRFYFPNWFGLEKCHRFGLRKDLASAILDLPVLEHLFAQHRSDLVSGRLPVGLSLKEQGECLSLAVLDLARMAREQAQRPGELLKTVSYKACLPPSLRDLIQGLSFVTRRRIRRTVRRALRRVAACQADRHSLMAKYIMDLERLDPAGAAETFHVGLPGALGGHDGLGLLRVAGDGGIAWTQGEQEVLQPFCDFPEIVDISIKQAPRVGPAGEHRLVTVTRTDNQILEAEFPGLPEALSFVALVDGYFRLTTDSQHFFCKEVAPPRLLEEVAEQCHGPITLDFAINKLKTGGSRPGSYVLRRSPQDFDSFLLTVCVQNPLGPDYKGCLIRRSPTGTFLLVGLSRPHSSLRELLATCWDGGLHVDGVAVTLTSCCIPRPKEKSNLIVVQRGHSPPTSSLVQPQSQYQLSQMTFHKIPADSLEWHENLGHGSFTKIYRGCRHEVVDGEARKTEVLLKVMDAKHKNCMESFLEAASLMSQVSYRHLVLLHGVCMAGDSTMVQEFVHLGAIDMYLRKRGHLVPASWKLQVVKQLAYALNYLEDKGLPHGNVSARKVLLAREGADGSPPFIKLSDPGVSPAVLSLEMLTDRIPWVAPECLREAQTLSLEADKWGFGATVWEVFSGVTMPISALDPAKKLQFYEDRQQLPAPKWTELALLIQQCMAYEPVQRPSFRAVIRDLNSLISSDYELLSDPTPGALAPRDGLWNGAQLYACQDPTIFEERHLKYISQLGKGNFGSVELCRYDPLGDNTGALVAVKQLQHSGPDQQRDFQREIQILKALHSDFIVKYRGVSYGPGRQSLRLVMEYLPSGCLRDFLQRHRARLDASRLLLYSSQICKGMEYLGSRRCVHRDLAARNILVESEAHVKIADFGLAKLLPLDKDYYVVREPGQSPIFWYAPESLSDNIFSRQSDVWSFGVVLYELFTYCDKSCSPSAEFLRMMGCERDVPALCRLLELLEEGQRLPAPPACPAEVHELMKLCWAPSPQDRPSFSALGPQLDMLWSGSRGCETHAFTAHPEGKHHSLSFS
Regarding `O=C1Nc2ccccc2/C1=C1/Nc2ccccc2/C1=N\OCCC(O)CO` (configuration not stated), the residual activity is 16.9%.
The same measure, in the same setting: for `COc1ccc(CNC(=O)Nc2ncc([N+](=O)[O-])s2)cc1` the value was 105%; for `Cn1sc(=O)n(Cc2ccccc2)c1=O`, 106%.
On the same count and under the same terms, for `CC(C)c1nn(-c2c(Cl)cccc2Cl)c2nc(Cc3ccc(OCCO)cc3)nc(O)c12` the value was 103%.

A further assay addresses PRKG1 (human) (UniProt Q13976). Described as above. The note with it: compound 0.5 µM; ATP 10 µM.
Regarding `O=C1Nc2ccccc2/C1=C1/Nc2ccccc2/C1=N\OCCC(O)CO` (configuration not stated), the residual activity is 45.1% and 53%.
On the same count and under the same terms, to `COc1ccc(CNC(=O)Nc2ncc([N+](=O)[O-])s2)cc1` belongs 95.9% and 97.3%; to `Cn1sc(=O)n(Cc2ccccc2)c1=O`, 93.2% and 95.9%; to `CC(C)c1nn(-c2c(Cl)cccc2Cl)c2nc(Cc3ccc(OCCO)cc3)nc(O)c12`, 92.3% and 99%.

The target of the next assay is MELK (human) (UniProt Q14680). Described as above. The note with it: compound 0.5 µM; ATP 10 µM.
Sequence of MELK (human) (Q14680 whole entry, looked up): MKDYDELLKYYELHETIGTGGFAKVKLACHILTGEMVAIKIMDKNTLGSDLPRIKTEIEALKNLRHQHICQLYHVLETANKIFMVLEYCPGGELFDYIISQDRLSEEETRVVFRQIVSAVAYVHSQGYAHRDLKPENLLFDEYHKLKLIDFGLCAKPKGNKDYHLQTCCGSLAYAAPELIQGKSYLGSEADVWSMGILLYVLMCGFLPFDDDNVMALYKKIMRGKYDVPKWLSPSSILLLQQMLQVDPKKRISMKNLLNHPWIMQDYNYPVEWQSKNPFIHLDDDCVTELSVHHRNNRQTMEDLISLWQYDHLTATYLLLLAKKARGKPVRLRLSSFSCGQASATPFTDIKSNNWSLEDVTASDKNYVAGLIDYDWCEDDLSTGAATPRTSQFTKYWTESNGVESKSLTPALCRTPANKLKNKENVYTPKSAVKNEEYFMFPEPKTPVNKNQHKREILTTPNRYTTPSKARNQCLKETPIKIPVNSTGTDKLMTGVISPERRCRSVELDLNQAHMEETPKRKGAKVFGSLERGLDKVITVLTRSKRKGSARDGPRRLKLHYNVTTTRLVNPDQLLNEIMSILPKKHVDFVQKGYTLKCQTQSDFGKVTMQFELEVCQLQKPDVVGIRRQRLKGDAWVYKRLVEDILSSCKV
As for `O=C1Nc2ccccc2/C1=C1/Nc2ccccc2/C1=N\OCCC(O)CO` (configuration not stated), the residual activity was found to be 13.1%.
`Cn1sc(=O)n(Cc2ccccc2)c1=O`: the residual activity stood at 99.3%.
Take `CC(C)c1nn(-c2c(Cl)cccc2Cl)c2nc(Cc3ccc(OCCO)cc3)nc(O)c12`: the residual activity was 84%.

The target of another assay is PLK3 (human) (UniProt Q9H4B4). The description is as above. The note with it: compound 0.5 µM; ATP 10 µM.
For the molecule `O=C1Nc2ccccc2/C1=C1/Nc2ccccc2/C1=N\OCCC(O)CO` (configuration not stated), the residual activity was 102%.
Still for that read-out and setting: for `COc1ccc(CNC(=O)Nc2ncc([N+](=O)[O-])s2)cc1` the value was 101%; for `Cn1sc(=O)n(Cc2ccccc2)c1=O`, 99.1%; for `CC(C)c1nn(-c2c(Cl)cccc2Cl)c2nc(Cc3ccc(OCCO)cc3)nc(O)c12`, 99.1%.

Another assay deals with MAPK11 (human) (UniProt Q15759). Described as above. The note with it: compound 0.5 µM; ATP 10 µM.
For `O=C1Nc2ccccc2/C1=C1/Nc2ccccc2/C1=N\OCCC(O)CO` (configuration not stated), the residual activity stood at 95.2%.
Still for that read-out and setting: for `COc1ccc(CNC(=O)Nc2ncc([N+](=O)[O-])s2)cc1` the value was 95.4%.
For `Cn1sc(=O)n(Cc2ccccc2)c1=O`, the residual activity is 97.2%.
Regarding `CC(C)c1nn(-c2c(Cl)cccc2Cl)c2nc(Cc3ccc(OCCO)cc3)nc(O)c12`, the residual activity is 81.8%.

The next assay concerns the target DAPK2 (human) (UniProt Q9UIK4). The assay is described as above. The note with it: compound 0.5 µM; ATP 10 µM.
Regarding `O=C1Nc2ccccc2/C1=C1/Nc2ccccc2/C1=N\OCCC(O)CO` (configuration not stated), the residual activity is 104%.
On the same count and under the same terms, for `COc1ccc(CNC(=O)Nc2ncc([N+](=O)[O-])s2)cc1` the value was 93.3%.
As to `Cn1sc(=O)n(Cc2ccccc2)c1=O`, the residual activity was found to be 94%.
As for `CC(C)c1nn(-c2c(Cl)cccc2Cl)c2nc(Cc3ccc(OCCO)cc3)nc(O)c12`, the residual activity turned out to be 88.3%.

The next assay concerns the target PRKCB2 (human) (UniProt P05771). Described as above. The note with it: compound 0.5 µM; ATP 10 µM.
`O=C1Nc2ccccc2/C1=C1/Nc2ccccc2/C1=N\OCCC(O)CO` (configuration not stated): the residual activity came to 88%.
Regarding `COc1ccc(CNC(=O)Nc2ncc([N+](=O)[O-])s2)cc1`, the residual activity came out at 103%.
Regarding `Cn1sc(=O)n(Cc2ccccc2)c1=O`, the residual activity is 111%.
With `CC(C)c1nn(-c2c(Cl)cccc2Cl)c2nc(Cc3ccc(OCCO)cc3)nc(O)c12`, the residual activity stood at 96.7%.

A further assay concerns the target CAMK2G (human) (UniProt Q13555). The description is as above. The note with it: compound 0.5 µM; ATP 10 µM.
For the molecule `O=C1Nc2ccccc2/C1=C1/Nc2ccccc2/C1=N\OCCC(O)CO` (configuration not stated), the residual activity worked out at 35.3%.
Take `COc1ccc(CNC(=O)Nc2ncc([N+](=O)[O-])s2)cc1`: the residual activity turned out to be 102%.
The same measure, in the same setting: for `Cn1sc(=O)n(Cc2ccccc2)c1=O` the value was 90.1%; for `CC(C)c1nn(-c2c(Cl)cccc2Cl)c2nc(Cc3ccc(OCCO)cc3)nc(O)c12`, 98.9%.

A further assay concerns the target PDGFRA (human) (UniProt P16234). The description is as above. The note with it: compound 0.5 µM; ATP 10 µM.
As for `O=C1Nc2ccccc2/C1=C1/Nc2ccccc2/C1=N\OCCC(O)CO` (configuration not stated), the residual activity was 76.7%.
Same read-out and setting: to `COc1ccc(CNC(=O)Nc2ncc([N+](=O)[O-])s2)cc1` belongs 93%; to `Cn1sc(=O)n(Cc2ccccc2)c1=O`, 84.1%; to `CC(C)c1nn(-c2c(Cl)cccc2Cl)c2nc(Cc3ccc(OCCO)cc3)nc(O)c12`, 91.6%.

The next assay deals with PAK2 (human) (UniProt Q13177). The assay is described as above. The note with it: compound 0.5 µM; ATP 10 µM.
Sequence of PAK2 (human) (Q13177 whole entry, looked up): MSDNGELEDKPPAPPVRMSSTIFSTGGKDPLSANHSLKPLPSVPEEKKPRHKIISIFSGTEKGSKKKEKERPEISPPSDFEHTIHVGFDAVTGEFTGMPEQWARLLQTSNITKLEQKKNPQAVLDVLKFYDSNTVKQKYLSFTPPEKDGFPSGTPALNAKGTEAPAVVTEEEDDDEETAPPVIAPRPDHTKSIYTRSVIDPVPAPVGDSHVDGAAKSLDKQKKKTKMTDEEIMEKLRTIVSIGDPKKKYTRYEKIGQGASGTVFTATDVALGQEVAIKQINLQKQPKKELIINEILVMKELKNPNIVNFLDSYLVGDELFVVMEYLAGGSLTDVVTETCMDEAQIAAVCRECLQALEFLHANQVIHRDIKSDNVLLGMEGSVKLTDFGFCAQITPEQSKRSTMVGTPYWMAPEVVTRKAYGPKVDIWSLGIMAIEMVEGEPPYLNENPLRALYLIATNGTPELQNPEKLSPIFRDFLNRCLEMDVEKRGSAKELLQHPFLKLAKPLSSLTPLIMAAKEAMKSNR
Regarding `O=C1Nc2ccccc2/C1=C1/Nc2ccccc2/C1=N\OCCC(O)CO` (configuration not stated), the residual activity was determined as 82.1%.
Same read-out and setting: to `COc1ccc(CNC(=O)Nc2ncc([N+](=O)[O-])s2)cc1` belongs 102%.
Consider `Cn1sc(=O)n(Cc2ccccc2)c1=O`, for which the residual activity was found to be 104%.
On to `CC(C)c1nn(-c2c(Cl)cccc2Cl)c2nc(Cc3ccc(OCCO)cc3)nc(O)c12`, for which the residual activity came to 95.6%.

In the next assay the target is MARK3 (human) (UniProt P27448). Described as above. The note with it: compound 0.5 µM; ATP 10 µM.
Sequence of MARK3 (human) (P27448 whole entry, looked up): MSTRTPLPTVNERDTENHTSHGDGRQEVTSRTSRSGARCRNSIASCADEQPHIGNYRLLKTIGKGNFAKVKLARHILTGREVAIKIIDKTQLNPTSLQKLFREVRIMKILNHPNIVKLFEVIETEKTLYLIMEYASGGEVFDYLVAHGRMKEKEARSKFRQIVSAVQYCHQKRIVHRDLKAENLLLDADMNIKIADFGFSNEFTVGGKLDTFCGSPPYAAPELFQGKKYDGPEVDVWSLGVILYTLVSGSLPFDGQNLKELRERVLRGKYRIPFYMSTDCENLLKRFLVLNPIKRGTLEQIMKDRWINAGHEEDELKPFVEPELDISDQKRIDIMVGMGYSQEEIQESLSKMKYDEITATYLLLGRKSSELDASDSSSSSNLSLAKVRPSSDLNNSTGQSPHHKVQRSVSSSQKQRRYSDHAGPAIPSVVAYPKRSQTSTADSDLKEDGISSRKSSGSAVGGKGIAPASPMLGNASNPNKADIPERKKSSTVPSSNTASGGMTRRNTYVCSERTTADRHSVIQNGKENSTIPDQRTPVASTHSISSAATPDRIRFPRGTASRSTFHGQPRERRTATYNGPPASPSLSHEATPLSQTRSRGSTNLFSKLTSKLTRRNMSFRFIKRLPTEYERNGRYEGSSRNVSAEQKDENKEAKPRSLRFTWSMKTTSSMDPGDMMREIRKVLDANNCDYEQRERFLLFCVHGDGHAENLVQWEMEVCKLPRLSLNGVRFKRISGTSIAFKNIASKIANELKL
As for `O=C1Nc2ccccc2/C1=C1/Nc2ccccc2/C1=N\OCCC(O)CO` (configuration not stated), the residual activity worked out at 75.2%.
On the same count and under the same terms, for `COc1ccc(CNC(=O)Nc2ncc([N+](=O)[O-])s2)cc1` the value was 105%; for `Cn1sc(=O)n(Cc2ccccc2)c1=O`, 97.1%; for `CC(C)c1nn(-c2c(Cl)cccc2Cl)c2nc(Cc3ccc(OCCO)cc3)nc(O)c12`, 92.2%.

Another assay concerns the target ERBB4 (human) (UniProt Q15303). The description is as above. The note with it: compound 0.5 µM; ATP 10 µM.
As for `O=C1Nc2ccccc2/C1=C1/Nc2ccccc2/C1=N\OCCC(O)CO` (configuration not stated), the residual activity stood at 97.5%.
With `COc1ccc(CNC(=O)Nc2ncc([N+](=O)[O-])s2)cc1`, the residual activity came out at 95.2%.
As to `Cn1sc(=O)n(Cc2ccccc2)c1=O`, the residual activity amounted to 104%.
Same read-out and setting: for `CC(C)c1nn(-c2c(Cl)cccc2Cl)c2nc(Cc3ccc(OCCO)cc3)nc(O)c12` the value was 101%.

In another assay the target is SYK (human) (UniProt P43405). Described as above. The note with it: compound 0.5 µM; ATP 10 µM.
For the molecule `O=C1Nc2ccccc2/C1=C1/Nc2ccccc2/C1=N\OCCC(O)CO` (configuration not stated), the residual activity came out at 38.6%.
The same measure, in the same setting: to `COc1ccc(CNC(=O)Nc2ncc([N+](=O)[O-])s2)cc1` belongs 98.6%; to `Cn1sc(=O)n(Cc2ccccc2)c1=O`, 92.2%; to `CC(C)c1nn(-c2c(Cl)cccc2Cl)c2nc(Cc3ccc(OCCO)cc3)nc(O)c12`, 98.6%.

The target of the next assay is OXSR1 (human) (UniProt O95747). The description is as above. The note with it: compound 0.5 µM; ATP 10 µM.
Sequence of OXSR1 (human) (O95747 whole entry, looked up): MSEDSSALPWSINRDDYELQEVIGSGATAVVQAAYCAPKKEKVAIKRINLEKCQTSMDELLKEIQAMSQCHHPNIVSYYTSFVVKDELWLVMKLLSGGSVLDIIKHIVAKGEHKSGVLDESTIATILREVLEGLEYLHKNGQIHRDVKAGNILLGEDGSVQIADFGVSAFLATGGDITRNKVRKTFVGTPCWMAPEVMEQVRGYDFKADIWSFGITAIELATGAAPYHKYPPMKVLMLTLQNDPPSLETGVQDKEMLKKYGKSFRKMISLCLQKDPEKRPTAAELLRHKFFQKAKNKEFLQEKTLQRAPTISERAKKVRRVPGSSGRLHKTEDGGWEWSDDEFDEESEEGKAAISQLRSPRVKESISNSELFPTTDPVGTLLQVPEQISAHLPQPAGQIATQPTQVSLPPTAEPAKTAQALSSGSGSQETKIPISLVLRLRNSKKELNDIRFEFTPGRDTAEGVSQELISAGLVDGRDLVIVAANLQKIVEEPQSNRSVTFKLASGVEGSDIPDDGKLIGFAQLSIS
Turning to `O=C1Nc2ccccc2/C1=C1/Nc2ccccc2/C1=N\OCCC(O)CO` (configuration not stated), the residual activity turned out to be 98.6%.
Still for that read-out and setting: for `COc1ccc(CNC(=O)Nc2ncc([N+](=O)[O-])s2)cc1` the value was 95.9%; for `Cn1sc(=O)n(Cc2ccccc2)c1=O`, 91.1%.
Same read-out and setting: to `CC(C)c1nn(-c2c(Cl)cccc2Cl)c2nc(Cc3ccc(OCCO)cc3)nc(O)c12` belongs 93.8%.

Another assay deals with CAMK1D (human) (UniProt Q8IU85). Described as above. The note with it: compound 0.5 µM; ATP 10 µM.
`O=C1Nc2ccccc2/C1=C1/Nc2ccccc2/C1=N\OCCC(O)CO` (configuration not stated): the residual activity came to 80.3%.
Still for that read-out and setting: to `COc1ccc(CNC(=O)Nc2ncc([N+](=O)[O-])s2)cc1` belongs 112%.
